{"source": "BindingDB's records for patent US12522634", "about": "(Farsight Medical Technology (Shanghai), 2026)", "key": {"[1]": {"biological_target": "Peptidyl-prolyl cis-trans isomerase A (Homo sapiens, UniProt P62937)", "sequence (P62937 whole entry)": "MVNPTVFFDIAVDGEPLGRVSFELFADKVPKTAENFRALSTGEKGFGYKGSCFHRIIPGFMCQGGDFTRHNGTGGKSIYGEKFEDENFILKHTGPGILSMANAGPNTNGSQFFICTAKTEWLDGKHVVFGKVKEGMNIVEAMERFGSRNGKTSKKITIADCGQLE", "test": "Cyclophilin Peptidyl-Prolyl Isomerase Functional Assay", "experimental": "(§1) Assay buffer was cooled to 10° C. (with stirring) in a precision glass cuvette and inhibitor was added from a DMSO stock solution to afford a final concentration of <1% DMSO. A blank spectrum was obtained and then enzyme and substrate were added and the change in absorbance measured over 5 min. A first order rate was fitted to the absorbance data to obtain a rate constant (first 10 to 15 s were eliminated due to mixing). The catalytic rate was calculated from the enzymatic rate minus the background rate. The enzymatic rate constant, determined in duplicate at each inhibitor concentration, was plotted against inhibitor concentration and a non-linear fit by SigmaPlot generated a Ki."}, "[2]": {"biological_target": "Peptidyl-prolyl cis-trans isomerase F, mitochondrial (Human, UniProt P30405)", "sequence (P30405 whole entry)": "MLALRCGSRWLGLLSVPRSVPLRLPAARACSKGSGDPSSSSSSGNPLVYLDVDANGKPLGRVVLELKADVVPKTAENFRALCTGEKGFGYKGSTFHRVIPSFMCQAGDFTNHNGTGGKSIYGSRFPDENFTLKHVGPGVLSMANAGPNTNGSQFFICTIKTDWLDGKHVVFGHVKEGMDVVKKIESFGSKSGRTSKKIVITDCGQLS", "test": "Cyclophilin Peptidyl-Prolyl Isomerase Functional Assay", "experimental": "as §1"}}, "note": "Starred links: 1 amine or outer side, 2 acyl side, 3 side chain; linkers in the order of their positions; H or OH if unused. Non-standard residues stand in square brackets, D forms with d. Residues, ends and D or L forms follow the SMILES beside them. MeBmt = C/C=C/C[C@@H](C)[C@@H](O)[C@H](NC)C(=O)O; X1 = CN([C@H](OCCN1CCOCC1)C(=O)[*:2])[*:1]; X2 = CN(C)CCO[C@H](C(=O)[*:2])N(C)[*:1]; NMeL = CN[C@@H](CC(C)C)C(=O)O; NMeV = CN[C@H](C(=O)O)C(C)C; Nva = CCC[C@H](N)C(=O)O"}
{"smiles": "C/C=C/C[C@@H](C)[C@@H](O)[C@H]1C(=O)N[C@@H](CCC)C(=O)N(C)[C@H](OCCN(C)C)C(=O)N(C)[C@@H](CC(C)C)C(=O)N[C@@H](C(C)C)C(=O)N(C)[C@@H](CC(C)C)C(=O)N[C@@H](C)C(=O)N[C@H](C)C(=O)N(C)[C@@H](CC(C)C)C(=O)N(C)[C@@H](CC(C)C)C(=O)N(C)[C@@H](C(C)C)C(=O)N1C", "note": "[US12522634, Compound 7] (cyclo(A[dA][NMeL][NMeL][NMeV][MeBmt][Nva][X2][NMeL]V[NMeL]))", "values": [{"measurement": "Ki", "setting": "[1]", "value": 9.4, "unit": "nM"}, {"measurement": "Ki", "setting": "[2]", "value": 5.9, "unit": "nM"}]}
{"smiles": "C/C=C/C[C@@H](C)[C@@H](O)[C@H]1C(=O)N[C@@H](C(C)C)C(=O)N(C)[C@H](OCCN2CCOCC2)C(=O)N(C)[C@@H](CC(C)C)C(=O)N[C@@H](C(C)C)C(=O)N(C)[C@@H](CC(C)C)C(=O)N[C@@H](C)C(=O)N[C@H](C)C(=O)N(C)[C@@H](CC(C)C)C(=O)N(C)[C@@H](CC(C)C)C(=O)N(C)[C@@H](C(C)C)C(=O)N1C", "note": "[US12522634, Compound 4] (cyclo(A[dA][NMeL][NMeL][NMeV][MeBmt]V[X1][NMeL]V[NMeL]))", "values": [{"measurement": "Ki", "setting": "[1]", "value": 2.3, "unit": "nM"}, {"measurement": "Ki", "setting": "[2]", "value": 4.1, "unit": "nM"}]}
{"smiles": "C/C=C/C[C@@H](C)[C@@H](O)[C@H]1C(=O)N[C@@H](C(C)C)C(=O)N(C)[C@H](OCCN(C)C)C(=O)N(C)[C@@H](CC(C)C)C(=O)N[C@@H](C(C)C)C(=O)N(C)[C@@H](CC(C)C)C(=O)N[C@@H](C)C(=O)N[C@H](C)C(=O)N(C)[C@@H](CC(C)C)C(=O)N(C)[C@@H](CC(C)C)C(=O)N(C)[C@@H](C(C)C)C(=O)N1C", "note": "[US12522634, Compound 3] (cyclo(A[dA][NMeL][NMeL][NMeV][MeBmt]V[X2][NMeL]V[NMeL]))", "values": [{"measurement": "Ki", "setting": "[2]", "value": 5.1, "unit": "nM"}]}
{"smiles": "C/C=C/C[C@@H](C)[C@@H](O)[C@H]1C(=O)N[C@@H](CCC)C(=O)N(C)[C@H](OCCN2CCOCC2)C(=O)N(C)[C@@H](CC(C)C)C(=O)N[C@@H](C(C)C)C(=O)N(C)[C@@H](CC(C)C)C(=O)N[C@@H](C)C(=O)N[C@H](C)C(=O)N(C)[C@@H](CC(C)C)C(=O)N(C)[C@@H](CC(C)C)C(=O)N(C)[C@@H](C(C)C)C(=O)N1C", "note": "[US12522634, Compound 8] (cyclo(A[dA][NMeL][NMeL][NMeV][MeBmt][Nva][X1][NMeL]V[NMeL]))", "values": [{"measurement": "Ki", "setting": "[1]", "value": 39, "unit": "nM"}, {"measurement": "Ki", "setting": "[2]", "value": 35, "unit": "nM"}]}
